This note sets out measurements from patent US20120165384A1, “INHIBITION OF HISTONE ACETYLTRANSFERASES BY CTK7A AND METHODS THEREOF” (JAWAHARLAL NEHRU CENTRE FOR ADVANCED SCIENTIFIC RESEARCH, priority 2009, published 2012).

Structures are written as SMILES.

One assay has as its target HDAC1 (Homo sapiens, UniProt Q13547). The assay is described as follows: Histone deacetylase assay, HDAC1. Format: biochemical. The note with it: even at 100 μM. As to the method: (§1) The deacetylation assay was performed as per standard protocol^31. For SirT2 deacetylase assay, 50 ng of bacterially expressed, recombinant enzyme was added in the presence or absence of cofactor NAD^+. HMTase was performed as reported earlier^31.

In a further assay the test system is KB cell tumors. The assay is described as follows: Immunohistochemistry of KB cell tumors from treated mice. Format: in vivo, nude mice (BALB/c). The method, then:
After deparafinizing, slides were rinsed in ethanol. Antigen retrieval was performed with sodium citrate (10 mM pH 6.0) for 5 min at 98° C. The staining was performed with the Envision kit (Dako, Denmark). Counterstaining was performed with Mayer's haematoxylin, and mounted in DPX and air dried. Each of the sample specimens was pathologically confirmed before carrying out the immunohistochemistry. For statistical analysis, cells (100 cells from a total of 5-6 independent fields) were counted from both normal and tumor tissue sections and scored for percentage of positive cells (brown colour) for the indicated antibodies. For comparison one-way ANOVA was performed using “Sigmaplot Software”. P-value<0.01 was considered as statistically significant, n=31.
Animal experiments were performed with the approval by authorized ethics Committee. Sixteen nude mice (BALB/c) were included in the experiments (10 male and 6 female mice). Mice were kept in isolators in a pathogen free environment. All nude mice were 3-4 weeks old at the start of the experiments. KB cells, 2×10^6 cells were inoculated in each mice in the right and left flanks, respectively. Mice were then divided in two groups (5 males and 3 females) in each group. After the tumors grown to palpable in size, CTK7A treatment were given intraperitoneally (i.p) with 100 mg/kg body weight/twice a day. Tumors were measured once in three days with a caliper and their volumes were calculated by the formula: 0.52×D1×(D2)^2, where ‘D1’ and ‘D2’ are, respectively, the longest and shortest dimension. The last dose of the compound (CTK7A) was administered four hour before sacrificing it. Tumors were removed and put into liquid nitrogen or were fixed in 10% formalin for 1-2 h to make blocks to be used for IHC. For comparing tumor sizes between treated and control one-way ANOVA was performed using “Sigmaplot Software”. P-value<0.05 was considered as statistically significant.

Assay [1] concerns KB cells. The assay is described as follows: In vitro wound-healing assay. The assay is classed as cell-based. Particulars: 24 h, in the presence of serum. As to the method: Cells in medium containing 10% FBS were seeded in 30 mm dishes. After the cells grew to confluence, wounds of constant diameter were made by sterile plastic pipette tip (200-μl) by scratching the monolayers. Cells were washed with the serum free medium twice and refreshed with medium with or without 10% FBS. Cells were treated with or without the HAT inhibitor for 24 h along with 10% serum. The wound photographs were taken under phase-contrast microscope. Serum positive and negative cells act as positive and negative control for the experiments respectively.

For assay [2], the system named is cyclin E and cyclin D1 expression in KB cells. The assay is described as follows: Cyclin expression in KB cells. The assay is classed as cell-based. As to the method:
KB cells were maintained in Dullbecco's modified Eagle medium (DMEM) with 10% fetal bovine serum (FBS) at 37° C. with a 5% CO2 atmosphere in a humidified incubator. For IFNγ and GSNO treatment, KB cells were incubated in the presence of IFNγ 10 ng ml^−1 for an additional 16 h and 24 h respectively. Immunofluorescent staining of cells for confocal microscopy was carried out as described previously^30. CTK7A treatment was done for 24 h followed by acid extraction of histone and immunoblotting as per standard protocol^31. For whole cell extract preparation RIPA buffer (Tris-HCl 50 mM, pH 7.4 NP-40 1%, Na-deoxycholate 0.25%, NaCl 150 mM, EDTA 1 mM, Phenylmethylsulfonyl fluoride (PMSF), 1 mM Na3VO4, 1 mM NaF and protease inhibitor cocktail) was used.

In another assay the target is T1, CBP (Homo sapiens, UniProt Q92793).
T1 construct: Recombinant baculovirus expressing full-length FLAG-tagged CARM1,CBP and PCAF; FLAG; made in house; host or cells: baculovirus-infected Sf21 cells
T1 sequence (Q92793 whole entry): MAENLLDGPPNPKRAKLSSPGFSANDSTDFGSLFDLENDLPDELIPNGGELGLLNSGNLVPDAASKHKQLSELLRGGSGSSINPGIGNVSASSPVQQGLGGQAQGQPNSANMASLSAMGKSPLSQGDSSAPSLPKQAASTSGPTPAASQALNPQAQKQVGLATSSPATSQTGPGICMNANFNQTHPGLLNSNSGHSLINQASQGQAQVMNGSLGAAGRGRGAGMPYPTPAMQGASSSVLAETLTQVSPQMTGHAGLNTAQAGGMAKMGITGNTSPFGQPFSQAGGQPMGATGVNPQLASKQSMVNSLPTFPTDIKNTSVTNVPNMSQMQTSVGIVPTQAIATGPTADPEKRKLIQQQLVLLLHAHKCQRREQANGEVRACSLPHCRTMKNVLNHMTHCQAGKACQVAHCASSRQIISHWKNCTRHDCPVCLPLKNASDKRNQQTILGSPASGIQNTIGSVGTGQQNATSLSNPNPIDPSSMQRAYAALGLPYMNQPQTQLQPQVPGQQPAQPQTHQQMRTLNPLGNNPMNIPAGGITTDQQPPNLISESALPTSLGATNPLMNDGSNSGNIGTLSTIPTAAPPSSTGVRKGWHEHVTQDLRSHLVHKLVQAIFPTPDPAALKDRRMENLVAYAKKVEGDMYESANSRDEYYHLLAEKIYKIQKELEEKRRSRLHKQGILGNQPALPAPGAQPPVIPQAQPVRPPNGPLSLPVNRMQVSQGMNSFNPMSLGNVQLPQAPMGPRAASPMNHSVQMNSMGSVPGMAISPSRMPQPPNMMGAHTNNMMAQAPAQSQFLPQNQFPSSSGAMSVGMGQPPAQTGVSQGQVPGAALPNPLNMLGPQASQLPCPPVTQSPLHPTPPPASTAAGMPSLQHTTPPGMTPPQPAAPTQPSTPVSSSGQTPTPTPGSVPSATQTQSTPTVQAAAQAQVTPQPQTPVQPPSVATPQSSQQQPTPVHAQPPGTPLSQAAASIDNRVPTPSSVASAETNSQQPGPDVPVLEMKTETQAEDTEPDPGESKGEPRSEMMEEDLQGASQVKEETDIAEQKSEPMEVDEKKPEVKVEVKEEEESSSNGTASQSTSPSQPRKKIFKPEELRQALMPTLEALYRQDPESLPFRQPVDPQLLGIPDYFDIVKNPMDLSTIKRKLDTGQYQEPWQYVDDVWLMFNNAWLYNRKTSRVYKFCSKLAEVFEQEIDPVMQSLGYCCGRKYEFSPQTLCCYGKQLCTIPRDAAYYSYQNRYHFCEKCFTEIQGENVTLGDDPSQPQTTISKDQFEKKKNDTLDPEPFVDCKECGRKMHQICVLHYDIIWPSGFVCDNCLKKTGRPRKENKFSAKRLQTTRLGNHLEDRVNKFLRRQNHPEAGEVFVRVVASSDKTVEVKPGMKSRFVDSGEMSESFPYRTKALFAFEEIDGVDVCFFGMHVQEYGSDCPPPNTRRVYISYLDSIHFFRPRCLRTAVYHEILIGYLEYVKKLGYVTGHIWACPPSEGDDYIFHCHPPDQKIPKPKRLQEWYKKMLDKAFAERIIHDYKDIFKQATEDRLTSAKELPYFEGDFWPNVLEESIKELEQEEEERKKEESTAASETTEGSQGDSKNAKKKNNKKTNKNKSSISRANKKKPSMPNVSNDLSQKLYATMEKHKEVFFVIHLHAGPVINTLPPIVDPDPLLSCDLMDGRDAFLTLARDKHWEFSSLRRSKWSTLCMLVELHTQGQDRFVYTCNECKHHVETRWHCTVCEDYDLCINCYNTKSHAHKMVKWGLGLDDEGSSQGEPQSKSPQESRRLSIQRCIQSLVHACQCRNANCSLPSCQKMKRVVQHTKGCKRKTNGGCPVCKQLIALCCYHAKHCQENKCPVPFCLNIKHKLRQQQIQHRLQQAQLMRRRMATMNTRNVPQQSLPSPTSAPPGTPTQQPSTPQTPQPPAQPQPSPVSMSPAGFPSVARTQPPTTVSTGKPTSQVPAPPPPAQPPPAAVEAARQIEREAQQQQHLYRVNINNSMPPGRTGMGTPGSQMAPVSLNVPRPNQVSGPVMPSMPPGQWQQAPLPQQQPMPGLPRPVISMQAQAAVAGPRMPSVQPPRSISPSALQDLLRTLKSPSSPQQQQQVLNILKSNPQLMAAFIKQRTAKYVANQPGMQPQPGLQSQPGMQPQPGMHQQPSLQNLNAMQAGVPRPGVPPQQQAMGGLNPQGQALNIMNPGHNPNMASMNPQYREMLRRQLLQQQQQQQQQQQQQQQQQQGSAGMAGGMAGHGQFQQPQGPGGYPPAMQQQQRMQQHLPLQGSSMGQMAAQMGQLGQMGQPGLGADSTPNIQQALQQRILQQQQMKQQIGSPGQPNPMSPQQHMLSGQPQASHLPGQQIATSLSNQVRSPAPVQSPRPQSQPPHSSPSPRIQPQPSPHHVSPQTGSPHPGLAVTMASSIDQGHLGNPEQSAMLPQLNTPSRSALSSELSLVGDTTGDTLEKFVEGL
The assay is described as follows: HAT assay with recombinant CBP. The assay is classed as biochemical. The method, then:
Recombinant baculovirus expressing full-length FLAG-tagged CARM1,CBP and PCAF were purified by immunoaffinity chromatography using M2-agarose beads followed by elution with FLAG peptide. Baculovirus-expressed full-length hexahistidine-tagged p300, and G9a were purified using Ni-NTA affinity chromatography as described previously^30.
HAT gel fluorography/autoradiography assays were performed as previously reported^30. Kinetic analysis of p300 HAT inhibition was performed as reported earlier^31 in the presence of (0, 30 and 50 μM) CTK7A. The obtained values were plotted as a lineweaver burk plot using Graphpad Prism software. For p300 Autoacetylation assay, reactions of p300 full length (80 ng) were carried out in HAT assay buffer at 30° C. for 10 minutes with or without the protein (NPM1) followed by addition of 1 μl of 4.7 Ci/mmol [^3H] acetyl CoA (NEN-PerkinElmer) and were further incubated for another 10 min in a 30 μl reaction. GAPDH was used as positive control. The radio-labeled acetylated p300 were processed by fluorography followed by autoradiography.

The next assay addresses T2, SIRT2 (Homo sapiens, UniProt Q8IXJ6).
T2 construct: made in house
T2 sequence (Q8IXJ6 1-389): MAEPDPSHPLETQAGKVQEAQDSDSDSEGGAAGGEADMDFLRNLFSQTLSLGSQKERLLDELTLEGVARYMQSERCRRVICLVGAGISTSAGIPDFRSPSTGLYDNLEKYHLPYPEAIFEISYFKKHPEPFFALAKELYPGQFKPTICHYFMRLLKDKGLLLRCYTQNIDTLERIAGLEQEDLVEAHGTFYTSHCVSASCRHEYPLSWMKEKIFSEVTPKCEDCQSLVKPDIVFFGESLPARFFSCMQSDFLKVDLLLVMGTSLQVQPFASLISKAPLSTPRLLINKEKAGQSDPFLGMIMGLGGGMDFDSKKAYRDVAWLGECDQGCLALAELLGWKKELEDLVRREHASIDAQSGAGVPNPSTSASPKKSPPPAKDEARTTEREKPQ
The assay is described as follows: SirT2 deacetylase assay. Particulars: even at 100 μM. Format: biochemical. As to the method:
as §1

Assay [3] has as its system KB cells. The assay is described as follows: Senescence-associated β-gal (SA-β-gal) activity analysis. The assay is classed as cell-based. As to the method: SA-β-gal activity was analyzed in KB cells as described earlier^47.

Sequence of HDAC1 (Q13547 whole entry, species assumed): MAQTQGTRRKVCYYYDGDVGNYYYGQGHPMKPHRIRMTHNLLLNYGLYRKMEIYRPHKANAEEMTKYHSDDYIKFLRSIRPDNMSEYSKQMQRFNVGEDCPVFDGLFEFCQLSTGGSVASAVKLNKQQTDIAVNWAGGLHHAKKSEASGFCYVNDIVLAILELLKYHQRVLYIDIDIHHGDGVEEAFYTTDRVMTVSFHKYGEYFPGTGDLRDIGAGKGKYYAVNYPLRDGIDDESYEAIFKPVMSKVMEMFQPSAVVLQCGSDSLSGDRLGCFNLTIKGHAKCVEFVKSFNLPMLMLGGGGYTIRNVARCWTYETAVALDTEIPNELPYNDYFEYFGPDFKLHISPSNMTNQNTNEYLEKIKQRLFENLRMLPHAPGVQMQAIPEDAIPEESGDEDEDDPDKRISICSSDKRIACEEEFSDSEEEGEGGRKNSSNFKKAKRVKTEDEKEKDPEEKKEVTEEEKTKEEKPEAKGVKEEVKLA

In the case of `COc1cc([O-])cc(C=CC2=NN(c3ccc(C(=O)[O-])cc3)C(C=Cc3cc([O-])cc(OC)c3)C2)c1.[Na+].[Na+].[Na+]` (centres unmarked) [CTK7A, Sodium 4-(3,5-bis(3-methoxy-5-oxidostyryl)-4,5dihydro-1H-pyrazole-1-yl)benzoate], at HDAC1, the “effect on HDAC1 activity” value is listed as “unaffected”. In the assay on KB cell tumors (i.p. 100 mg/kg twice a day), the “levels of COX2 in tumors (IHC)” value is “suppressed”; the “levels of GAPDH in tumors (IHC)” value is recorded as “down regulated”; the “levels of H3K9, K14 acetylation (H3AcK9AcK14) in tumors (IHC)” value was “decreased”; the “levels of NPM1 in tumors (IHC)” value was “down regulated”. Further, in the assay with KB cell tumors (i.p. 100 mg/kg twice a day), the “levels of ac-p300 in tumors (IHC)” value is given as “decreased”, the “levels of iNOS in tumors (IHC)” value is recorded as “down regulated”, the “p300 expression in tumors (IHC)” value was “marginal affect” and the “proliferation marker Ki-67 in tumors (IHC)” value was “down regulation”. Also, in the assay with KB cell tumors (present in control mice), the “nuclear GAPDH in tumors (IHC)” value is “absent or very faintly present”. In the assay on KB cell tumors (site specific antibodies), the “inhibition of H3K14 acetylation compared with H3K9 acetylation in tumors (IHC)” value is on record as “more potently”. Further, the wound healing activity entry in the assay on KB cells [1] was “reduction”. Moreover, the “cyclin D1 expression” value in assay [2] is “affected marginally”. In assay [2] (dose dependent), the “cyclin E expression” value was “down regulated”. Also, the “inhibition of CBP HAT activity” value at CBP is reported as “inhibit”. Besides, the “effect on SIRT2 activity” value on SIRT2 is given as “unaffected”. Moreover, the “expression of senescence associated beta-galactosidase (SA-β-gal)” value in the assay with KB cells [3] is “induced”.
